# Patent US20220218679A1, “NOVEL COMPOUNDS AND PHARMACEUTICAL COMPOSITIONS THEREOF FOR THE TREATMENT OF INFLAMMATORY DISORDERS” (Galapagos NV, priority 2019, published 2022)
# System: MC903 induced atopic dermatitis in mice
# Assay: Murine prophylactic model of atopic dermatitis induced by topical application of MC903
# Format: in vivo, BALB/cN mice or CD1/Swiss mice
# Settings: 10 mg/kg b.i.d., versus disease vehicle group
# Text: 5.5. Murine Prophylactic Model of Atopic Dermatitis Induced by Topical Application of MC903
# Methylcellulose 0.5% was obtained from VWR (cat no. AX021233). MC903 (calcipotriol) was obtained from Tocris Bioscience (cat no. 2700/50). ProSense® 680 was obtained from PerkinElmer (cat no. NEV10003). RNAlater® was obtained from Ambion (cat no. AM7021). Imalgene® 1000 (Merial) and Rompun® 2% (Bayer) were obtained from Centravet (cat no. IMA004-6827812 and ROM001-6835444).
# BALB/cN mice (female, 18-20 g body weight) or CD1/Swiss mice (female, 24-26 g body weight) were obtained from Janvier Labs (France). Mice were kept on a 12 h light/dark cycle (07:00-19:00). Temperature was maintained at 22±2° C., food and water were provided ad libitum. […]
# The thickness of both ears was measured (after anaesthesia induced by isoflurane inhalation) at initiation of the study, every other day and at sacrifice using a thickness gage (Mitutoyo, Absolute Digimatic, 547-321).
# Body weight was assessed at initiation of the study, every other day and at sacrifice.
# On D4, mice from all groups receive ProSense® 680 probe (0.8 nmol/10 g, IP). […] Granulocyte infiltration was measured using in vivo molecular imaging (Bruker In-Vivo Xtreme imaging system, excitation wavelength: 630 nm, emission wavelength: 700 nm, acquisition time: 5 seconds). […]
# For each readout, mean and sem were calculated. […]
structure (smiles),measurement,value
"COc1cn2nc(CCC(C)(C)O)cc2cc1NC(=O)c1cccn(C2CC2)c1=O [Compound 1, 1-cyclopropyl-N-[2-(3-hydroxy-3-methylbutyl)-6-methoxypyrazolo[1,5-a]pyridin-5-yl]-2-oxopyridine-3-carboxamide]",effect on ear thickening at D8,statistically significant effect
same,effect on granulocyte infiltrate,statistically significant effect
